Here are results for two compounds from patent US20220257552A1, “METHODS OF PRESCREENING AND TREATING BREAST CANCERS WITH SELECTIVE ANDROGEN RECEPTOR MODULATORS” (priority 2021, published 2022).

Data set [1] deals with MDA-MB-231-AR triple negative breast cancer cells. The data set is described as follows: MDA-MB-231-AR xenograft in nude mice. The format is in vivo. The following applies: for body weight / tumor weights: all doses. On the procedure: MDA-MB-231-AR triple negative breast cancer cells (2 million cells/mouse; MDA-MB-231 cells stably transfected with AR using lentivirus) were mixed with matrigel (1:1) and injected subcutaneously into the flanks of intact female nude mice (n=5/group). When the tumors reached 150-200 mm^3, the animals were separated into two groups, one receiving vehicle and the other receiving 30 mg/kg Formula VIII orally. Tumor volume was measured thrice weekly and % tumor growth inhibition (TGI) was calculated. At the end of 35 days of treatment, the animals were sacrificed, tumors excised, weighed, and collected for various analyses. Blood was collected and serum separated for drug concentration measurement.

The next data set addresses T1, PR (Rattus norvegicus, UniProt Q63449).
T1 construct: expressed in transfected cells
T1 sequence (Q63449 1-923): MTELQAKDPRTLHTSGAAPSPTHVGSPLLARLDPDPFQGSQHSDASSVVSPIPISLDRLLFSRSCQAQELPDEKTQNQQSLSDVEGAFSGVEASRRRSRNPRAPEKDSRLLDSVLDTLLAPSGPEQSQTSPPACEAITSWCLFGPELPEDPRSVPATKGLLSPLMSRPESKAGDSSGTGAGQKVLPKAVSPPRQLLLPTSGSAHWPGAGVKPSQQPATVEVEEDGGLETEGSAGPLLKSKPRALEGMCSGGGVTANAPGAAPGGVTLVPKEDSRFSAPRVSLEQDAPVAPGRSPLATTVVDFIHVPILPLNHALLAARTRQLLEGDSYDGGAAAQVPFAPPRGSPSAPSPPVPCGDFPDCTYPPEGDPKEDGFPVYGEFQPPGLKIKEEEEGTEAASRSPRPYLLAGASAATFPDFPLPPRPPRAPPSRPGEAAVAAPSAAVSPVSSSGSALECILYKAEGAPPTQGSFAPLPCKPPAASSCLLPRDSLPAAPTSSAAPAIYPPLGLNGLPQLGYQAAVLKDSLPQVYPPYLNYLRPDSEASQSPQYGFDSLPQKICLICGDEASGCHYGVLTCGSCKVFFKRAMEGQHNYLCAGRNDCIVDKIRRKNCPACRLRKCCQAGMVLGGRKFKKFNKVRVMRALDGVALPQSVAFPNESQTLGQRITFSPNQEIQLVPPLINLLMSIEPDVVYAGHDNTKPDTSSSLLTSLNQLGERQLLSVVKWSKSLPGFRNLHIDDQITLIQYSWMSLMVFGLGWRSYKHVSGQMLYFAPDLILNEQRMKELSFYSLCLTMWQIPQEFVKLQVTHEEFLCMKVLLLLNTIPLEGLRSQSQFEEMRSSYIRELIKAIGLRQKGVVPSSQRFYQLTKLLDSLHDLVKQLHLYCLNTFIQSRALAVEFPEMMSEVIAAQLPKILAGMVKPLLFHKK
The data set is described as follows: PR transactivation in HEK-293 cells. In kind it is cell-based. The procedure: Rat GR, MR, PR, ER-α and ER-β were individually cloned into a pCR3.1 vector backbone. Sequencing was performed to verify the absence of any mutations. HEK-293 cells were plated at 90,000 cells per well of a 24 well plate in Dulbecco's Minimal Essential Media supplemented with 5% charcoal-stripped FBS. […] Luciferase assays were performed 48 h after transfection. Transcriptional activation values are represented as firefly luciferase normalized to renilla luciferase.

A further data set deals with T2, AR (Homo sapiens, UniProt P10275).
T2 sequence (P10275 1-920): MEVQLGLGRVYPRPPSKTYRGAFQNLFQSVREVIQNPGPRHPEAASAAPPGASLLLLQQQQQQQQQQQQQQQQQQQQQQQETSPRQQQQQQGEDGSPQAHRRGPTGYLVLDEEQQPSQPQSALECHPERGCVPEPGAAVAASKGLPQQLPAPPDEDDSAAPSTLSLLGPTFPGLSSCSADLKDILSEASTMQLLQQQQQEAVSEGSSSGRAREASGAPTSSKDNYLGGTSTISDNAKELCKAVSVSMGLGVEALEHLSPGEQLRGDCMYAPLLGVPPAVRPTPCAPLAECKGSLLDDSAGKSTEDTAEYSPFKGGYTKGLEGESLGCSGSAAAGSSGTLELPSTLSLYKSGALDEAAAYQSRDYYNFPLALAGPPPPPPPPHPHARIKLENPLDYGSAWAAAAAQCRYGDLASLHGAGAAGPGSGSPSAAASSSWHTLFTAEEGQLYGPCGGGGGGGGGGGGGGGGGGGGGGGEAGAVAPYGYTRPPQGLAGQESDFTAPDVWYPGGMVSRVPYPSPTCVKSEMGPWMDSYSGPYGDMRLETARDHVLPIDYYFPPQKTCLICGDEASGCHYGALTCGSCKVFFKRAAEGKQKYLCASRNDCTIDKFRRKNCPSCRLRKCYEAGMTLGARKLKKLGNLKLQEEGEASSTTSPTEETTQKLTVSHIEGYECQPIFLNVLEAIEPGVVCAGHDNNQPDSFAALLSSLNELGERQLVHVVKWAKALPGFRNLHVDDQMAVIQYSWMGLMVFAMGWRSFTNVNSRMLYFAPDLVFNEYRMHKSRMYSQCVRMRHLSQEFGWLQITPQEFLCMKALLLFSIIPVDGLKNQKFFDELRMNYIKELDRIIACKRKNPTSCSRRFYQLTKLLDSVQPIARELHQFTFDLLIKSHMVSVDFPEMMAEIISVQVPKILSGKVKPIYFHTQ
The data set is described as follows: AR transactivation (GRE-LUC) in HEK-293 or MDA-MB-231 cells. In kind it is cell-based. Details: expressed in transfected cells. The note with it: HEK-293 and MDA-MB-231 cells. On the procedure:
Though AR transactivation assay was performed in HEK-293 cells, the ability of ligands to function as agonists or antagonists depends on cellular microenvironment. […] The cells were treated 24 h after transfection and luciferase assay performed 48 h after transfection.

In another data set the test system is MDA-MB-231-AR cells. The data set is described as follows: Morphology of MDA-MB-231-AR cells. The format is cell-based. The note with it: 3 days. The procedure:
MDA-MB-231 cells were stably transfected with AR using lentivirus. […] Live cells were visualized using a light-microscope and photographed. The cells were imaged at the same magnification and under the same microscopic conditions.
MDA-MB-231 cells were stably transfected with AR using lentivirus and were treated with vehicle or AR agonists at the indicated concentrations. At the end of 3 days of incubation, the cells were imaged under a microscope (40×).

In data set [2] the test system is MDA-MB-231 breast cancer cells stably transfected with AR. The data set is described as follows: Proliferation of MDA-MB-231 cells stably transfected with AR (Coulter counter). The format is cell-based. The note with it: 6 days, cell count. The procedure: MDA-MB-231 cells stably transfected with AR using lentivirus were treated with the indicated ligands for 6 days and the number of cells counted using Coulter counter.

Molecules are shown by their SMILES. pIC50: −log10 of the molar value.

Consider `C[C@](O)(COc1ccc(C#N)cc1)C(=O)Nc1ccc(C#N)c(C(F)(F)F)c1` [Formula IX, (S)—N-(4-Cyano-3-(trifluoromethyl)phenyl)-3-(4-cyanophenoxy)-2-hydroxy-2-methylpropanamide], for which, in data set [1], the body weight result is listed as “increase of body weight” and the tumor weights entry is “reduced”. At PR, this compound had a pIC50 of 6.79. Also, at AR, the AR transactivation result was “agonists of AR”. The cell morphology result with MDA-MB-231-AR cells is “altered the morphology into a more anchored phenotype”. The proliferation result in data set [2] is recorded as “inhibited the proliferation”.

Consider `C[C@](O)(COc1ccc(C#N)cc1)C(=O)Nc1ccc(C#N)c(Cl)c1` [Formula VIII, (S)—N-(3-chloro-4-cyanophenyl)-3-(4-cyanophenoxy)-2-hydroxy-2-methylpropanamide], for which the uterus weight entry in data set [1] (30 mg/kg orally) is listed as “increased”. Moreover, the “toxicity / body weight” value in data set [1] (30 mg/kg orally, 35 days) is “without any associated toxicity or changes in body weight”. In data set [1], the body weight entry is “increase of body weight” and the tumor weights result is listed as “reduced”. On PR, the negative-log IC50 (pIC50) was 7.77, the “PR antagonist potency relative to Formula IX (more potent)” value was 10 times, the “PR antagonist potency relative to R-enantiomer of Formula IX (more potent)” value was 100 times and the “PR antagonist potency relative to RU486 (weaker)” value is on record as “about 1,000 fold”. The “transactivation of PR, increase” value on PR (1 μM) is 3 fold. The “transactivation of PR, increase” value on PR (10 μM) worked out at 8 fold. For the same compound, the “weaker than the endogenous agonist for PR” value on PR (vs progesterone) is “greater than 10,000 fold”. In addition, the AR transactivation entry at AR is “agonists of AR”. In addition, the cell morphology entry with MDA-MB-231-AR cells was “altered the morphology into a more anchored phenotype”. The proliferation entry in data set [2] is listed as “inhibited the proliferation”.
